From patent US4758555A, “Method for treating convulsions and epilepsy with organic copper compounds” (priority 1986, dated 1988)

Key:
[1] = Maximal Electroshock Seizure Test; format: in vivo, male Carworth Farms #1 mice or Sprague-Dawley rats
[2] = Anticonvulsant activity, both or unspecified seizure models; format: in vivo, male Carworth Farms #1 mice or Sprague-Dawley rats; conditions: for Anticonvulsant activity (in words): running text

Compound	Anticonvulsant activity (in words) [2]	other results
CC(=O)Oc1ccccc1C(=O)[O-].CC(=O)Oc1ccccc1C(=O)[O-].CC(=O)Oc1ccccc1C(=O)[O-].CC(=O)Oc1ccccc1C(=O)[O-].[Cu+2].[Cu+2] [Cu(II)2 (acetylsalicylate)4]	activity at 30 minutes, 6 hours and 8 hours following subcutaneous injection of the entire range of doses studied	Anticonvulsant activity, Maximal Electroshock (Phase I) ([1]; Table I, SC): I
N[C@@H](Cc1c[nH]c2ccccc12)C(=O)[O-].N[C@@H](Cc1c[nH]c2ccccc12)C(=O)[O-].[Cu+2] [Cu(II)(L-tryptophanate)2]	found to have anticonvulsant activity	
Cu(II)(L-glutamate)2	found to have anticonvulsant activity	
O=C([O-])c1ccccc1O.O=C([O-])c1ccccc1O.[Cu+2].c1ccncc1.c1ccncc1 [Cu(II)(salicylate)2 (pyridine)2]		Anticonvulsant activity, Maximal Electroshock (Phase I) ([1]; Table II, IP): I; Onset and duration of anticonvulsant action (in words) [2]: activity representative of a compound with rapid onset
CC(C)c1cc(C(=O)[O-])c(O)c(C(C)C)c1.CC(C)c1cc(C(=O)[O-])c(O)c(C(C)C)c1.[Cu+2] [Cu(II)(3,5-diisopropylsalicylate)2]	effective in preventing both the Maximal Electroshock and Metrazol-inducedseizures in Phase I studies	
CC(C)C[C@H](N)C(=O)[O-].CC(C)C[C@H](N)C(=O)[O-].[Cu+2] [Cu(II)(L-leucinate)2]	found to have anticonvulsant activity	
N[C@@H](CO)C(=O)[O-].N[C@@H](CO)C(=O)[O-].[Cu+2] [Cu(II)(L-serinate)2]	found to have anticonvulsant activity	
O.O.O=C([O-])c1cc(Cl)cc(Cl)c1O.O=C([O-])c1cc(Cl)cc(Cl)c1O.[Cu+2] [Cu(II)(3,5-dichlorosalicylate)2 (H2 O)2]	effective in preventing both the Maximal Electroshock and Metrazol-inducedseizures in Phase I studies	Anticonvulsant activity, Maximal Electroshock (Phase I) ([1]; Table II, SC): I
O=C([O-])c1ccccc1OC(=O)C12CC3CC(CC(C3)C1)C2.O=C([O-])c1ccccc1OC(=O)C12CC3CC(CC(C3)C1)C2.O=C([O-])c1ccccc1OC(=O)C12CC3CC(CC(C3)C1)C2.O=C([O-])c1ccccc1OC(=O)C12CC3CC(CC(C3)C1)C2.[Cu+2].[Cu+2] [Cu(II)2 (adamantylsalicylate)4]	anticonvulsant activity at 30 minutes following subcutaneous injection at 30 and 300 mg/kg	Anticonvulsant activity, Maximal Electroshock (Phase I) ([1]; Table I, SC): I
O.O.O.O=C([O-])c1cc(Br)cc(Br)c1O.O=C([O-])c1cc(Br)cc(Br)c1O.[Cu+2] [Cu(II)(3,5-dibromosalicylate)2 (H2 O)3]	effective in preventing both the Maximal Electroshock and Metrazol-inducedseizures in Phase I studies	
CC(C)(C)c1ccc(C(=O)[O-])c(O)c1.CC(C)(C)c1ccc(C(=O)[O-])c(O)c1.CC(C)(C)c1ccc(C(=O)[O-])c(O)c1.CC(C)(C)c1ccc(C(=O)[O-])c(O)c1.O.[Cu+2].[Cu+2] [Cu(II)2 (4-tertiarybutylsalicylate)2.1/2H2 O]	effective at the higher doses studied and for prolonged periods of up to 4 hours	Anticonvulsant activity, Maximal Electroshock (Phase I) ([1]; Table II, SC): I
CC(C)(C)c1cc(C(=O)[O-])c(O)c(C(C)(C)C)c1.CC(C)(C)c1cc(C(=O)[O-])c(O)c(C(C)(C)C)c1.[Cu+2] [Cu(II)(3,5-ditertiarybutylsalicylate)2]	effective at the higher doses studied and for prolonged periods of up to 4 hours	Anticonvulsant activity (in words) ([2]; listed as 3,5-ditertiarybutylsalicylate): effective in preventing both the Maximal Electroshock and Metrazol-inducedseizures in Phase I studies
Cu(II)2 (benzoate)4	effective in protecting against both Maximal Electroshock and Metrazol-induced seizures	
CC(=O)Oc1c(I)cc(I)cc1C(=O)[O-].CC(=O)Oc1c(I)cc(I)cc1C(=O)[O-].O.O.O.[Cu+2] [Cu(II)2 (3,5-diiodoacetylsalicylate)4 (H2 O)6]	effective in protecting against both models of seizure	Anticonvulsant activity, Maximal Electroshock (Phase I) ([1]; Table I, IP): I
